What was measured:
ROCK1 = molecular target: T1, ROCK1 (Homo sapiens, UniProt Q13464); test: KINOMEscan at 1 μM, ROCK1; format: binding; settings: 1000 nM, read-out: Percent Control
T1 construct: purchased Eurofins DiscoverX KINOMEscan
Text: (§1) Supplement cells-12-00287-s001.zip/File S2. KinomeScan data for the CAMKK2 probe and negative control.xlsx, sheet "SGC-CAMKK2-1N" | column: Percent Control

CDC2L5 = molecular target: T2, CDC2L5 (Homo sapiens, UniProt Q14004); test: KINOMEscan at 1 μM, CDC2L5; format: binding; settings: 1000 nM, read-out: Percent Control
T2 construct: purchased Eurofins DiscoverX KINOMEscan
Text: as §1

ASK1 = molecular target: T3, ASK1 (Homo sapiens, UniProt Q99683); test: KINOMEscan at 1 μM, ASK1; format: binding; settings: 1000 nM, read-out: Percent Control
T3 construct: purchased Eurofins DiscoverX KINOMEscan
Text: as §1

TGFBR2 = molecular target: T4, TGFBR2 (Homo sapiens, UniProt P37173); test: KINOMEscan binding assay at 1 μM, TGFBR2; settings: Compound Concentration 1000 nM; read-out: Percent Control
T4 construct: purchased Eurofins DiscoverX KINOMEscan
T4 sequence (P37173 23-567): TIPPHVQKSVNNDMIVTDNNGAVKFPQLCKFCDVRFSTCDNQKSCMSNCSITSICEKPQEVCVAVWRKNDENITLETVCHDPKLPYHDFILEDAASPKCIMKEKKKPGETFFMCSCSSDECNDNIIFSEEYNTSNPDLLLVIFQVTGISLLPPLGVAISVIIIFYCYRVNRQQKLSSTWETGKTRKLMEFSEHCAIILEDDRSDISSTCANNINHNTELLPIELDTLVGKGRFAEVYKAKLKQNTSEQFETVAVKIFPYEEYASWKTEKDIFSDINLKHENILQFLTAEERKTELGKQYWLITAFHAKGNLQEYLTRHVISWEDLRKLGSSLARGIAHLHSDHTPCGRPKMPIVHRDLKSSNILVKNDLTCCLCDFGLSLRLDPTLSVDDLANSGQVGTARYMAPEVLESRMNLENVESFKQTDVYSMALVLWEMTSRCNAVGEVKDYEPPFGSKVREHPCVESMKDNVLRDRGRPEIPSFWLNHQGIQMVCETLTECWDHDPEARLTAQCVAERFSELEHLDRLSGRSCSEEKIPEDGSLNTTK
Text: as §1

FGR = molecular target: T5, FGR (Homo sapiens, UniProt P09769); test: KINOMEscan at 1 μM, FGR; format: binding; settings: 1000 nM, read-out: Percent Control
T5 construct: purchased Eurofins DiscoverX KINOMEscan
T5 sequence (P09769 whole entry): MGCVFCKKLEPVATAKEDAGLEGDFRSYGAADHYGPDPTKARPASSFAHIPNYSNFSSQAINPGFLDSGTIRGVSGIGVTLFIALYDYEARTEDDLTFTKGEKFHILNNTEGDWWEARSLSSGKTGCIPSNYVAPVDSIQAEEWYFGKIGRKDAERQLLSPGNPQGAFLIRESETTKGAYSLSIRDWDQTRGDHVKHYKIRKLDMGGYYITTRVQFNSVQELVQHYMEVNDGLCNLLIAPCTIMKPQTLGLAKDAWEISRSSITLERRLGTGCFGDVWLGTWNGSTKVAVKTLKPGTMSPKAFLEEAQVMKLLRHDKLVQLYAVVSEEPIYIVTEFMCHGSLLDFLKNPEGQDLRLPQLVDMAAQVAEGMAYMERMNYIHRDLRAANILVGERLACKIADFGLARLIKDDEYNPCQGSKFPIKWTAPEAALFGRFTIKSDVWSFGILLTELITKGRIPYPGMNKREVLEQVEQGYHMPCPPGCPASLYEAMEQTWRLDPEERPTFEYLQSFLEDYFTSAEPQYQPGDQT
Text: as §1

MARK1 = molecular target: T6, MARK1 (Homo sapiens, UniProt Q9P0L2); test: KINOMEscan at 1 μM, MARK1; format: binding; settings: 1000 nM, read-out: Percent Control
T6 construct: purchased Eurofins DiscoverX KINOMEscan
Text: as §1

KIT(L576P) = molecular target: T7, KIT(L576P) (Homo sapiens, UniProt P10721, L576P); test: KINOMEscan at 1 μM, KIT(L576P); format: binding; settings: 1000 nM, read-out: Percent Control
T7 construct: purchased Eurofins DiscoverX KINOMEscan
Text: as §1

PKNB(M.tuberculosis) = molecular target: T8, PKNB(M.tuberculosis) (Mycobacterium tuberculosis, UniProt P9WI81); test: KINOMEscan at 1 μM, PKNB(M.tuberculosis); format: binding; settings: 1000 nM, read-out: Percent Control
T8 construct: purchased Eurofins DiscoverX KINOMEscan
T8 sequence (P9WI81 whole entry): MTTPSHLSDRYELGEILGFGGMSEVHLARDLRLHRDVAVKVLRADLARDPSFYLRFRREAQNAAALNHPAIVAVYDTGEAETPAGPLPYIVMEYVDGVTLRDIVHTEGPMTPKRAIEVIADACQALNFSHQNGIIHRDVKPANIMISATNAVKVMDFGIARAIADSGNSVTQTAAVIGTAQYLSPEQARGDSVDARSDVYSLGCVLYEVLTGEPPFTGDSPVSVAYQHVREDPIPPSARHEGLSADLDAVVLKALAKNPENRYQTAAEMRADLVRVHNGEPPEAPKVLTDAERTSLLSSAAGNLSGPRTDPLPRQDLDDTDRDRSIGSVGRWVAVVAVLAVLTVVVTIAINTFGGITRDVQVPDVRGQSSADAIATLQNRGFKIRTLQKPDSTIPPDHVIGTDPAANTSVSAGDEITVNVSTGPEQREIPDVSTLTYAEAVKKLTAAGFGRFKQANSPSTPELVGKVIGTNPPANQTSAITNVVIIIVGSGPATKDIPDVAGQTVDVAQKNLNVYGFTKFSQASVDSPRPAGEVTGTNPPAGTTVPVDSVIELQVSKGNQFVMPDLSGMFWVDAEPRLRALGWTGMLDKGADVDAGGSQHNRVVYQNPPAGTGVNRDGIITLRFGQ
Text: as §1

JNK1 = molecular target: T9, JNK1 (Homo sapiens, UniProt P45983); test: KINOMEscan at 1 μM, JNK1; format: binding; settings: 1000 nM, read-out: Percent Control
T9 construct: purchased Eurofins DiscoverX KINOMEscan
Text: as §1

ACVR2A = molecular target: T10, ACVR2A (Homo sapiens, UniProt P27037); test: KINOMEscan at 1 μM, ACVR2A; format: binding; settings: 1000 nM, read-out: Percent Control
T10 construct: purchased Eurofins DiscoverX KINOMEscan
Text: as §1

MINK = molecular target: T11, MINK (Homo sapiens, UniProt Q8N4C8); test: KINOMEscan at 1 μM, MINK; format: binding; settings: 1000 nM, read-out: Percent Control
T11 construct: purchased Eurofins DiscoverX KINOMEscan
Text: as §1

MAST1 = molecular target: T12, MAST1 (Homo sapiens, UniProt Q9Y2H9); test: KINOMEscan binding assay at 1 μM, MAST1; settings: Compound Concentration 1000 nM; read-out: Percent Control
T12 construct: purchased Eurofins DiscoverX KINOMEscan
Text: as §1

MRCKB = molecular target: T13, MRCKB (Homo sapiens, UniProt Q9Y5S2); test: KINOMEscan binding assay at 1 μM, MRCKB; settings: Compound Concentration 1000 nM; read-out: Percent Control
T13 construct: purchased Eurofins DiscoverX KINOMEscan
Text: as §1

BRK = molecular target: T14, BRK (Homo sapiens, UniProt Q13882); test: KINOMEscan at 1 μM, BRK; format: binding; settings: 1000 nM, read-out: Percent Control
T14 construct: purchased Eurofins DiscoverX KINOMEscan
Text: as §1

[1] = molecular target: T15, RPS6KA4(Kin.Dom.1-N-terminal) (Homo sapiens, UniProt O75676); test: KINOMEscan binding assay at 1 μM, RPS6KA4(Kin.Dom.1-N-terminal); settings: Compound Concentration 1000 nM; read-out: Percent Control
T15 construct: RPS6KA4(Kin.Dom.1-N-terminal); purchased Eurofins DiscoverX KINOMEscan
Text: as §1

MERTK = molecular target: T16, MERTK (Homo sapiens, UniProt Q12866); test: KINOMEscan at 1 μM, MERTK; format: binding; settings: 1000 nM, read-out: Percent Control
T16 construct: purchased Eurofins DiscoverX KINOMEscan
T16 sequence (Q12866 21-999): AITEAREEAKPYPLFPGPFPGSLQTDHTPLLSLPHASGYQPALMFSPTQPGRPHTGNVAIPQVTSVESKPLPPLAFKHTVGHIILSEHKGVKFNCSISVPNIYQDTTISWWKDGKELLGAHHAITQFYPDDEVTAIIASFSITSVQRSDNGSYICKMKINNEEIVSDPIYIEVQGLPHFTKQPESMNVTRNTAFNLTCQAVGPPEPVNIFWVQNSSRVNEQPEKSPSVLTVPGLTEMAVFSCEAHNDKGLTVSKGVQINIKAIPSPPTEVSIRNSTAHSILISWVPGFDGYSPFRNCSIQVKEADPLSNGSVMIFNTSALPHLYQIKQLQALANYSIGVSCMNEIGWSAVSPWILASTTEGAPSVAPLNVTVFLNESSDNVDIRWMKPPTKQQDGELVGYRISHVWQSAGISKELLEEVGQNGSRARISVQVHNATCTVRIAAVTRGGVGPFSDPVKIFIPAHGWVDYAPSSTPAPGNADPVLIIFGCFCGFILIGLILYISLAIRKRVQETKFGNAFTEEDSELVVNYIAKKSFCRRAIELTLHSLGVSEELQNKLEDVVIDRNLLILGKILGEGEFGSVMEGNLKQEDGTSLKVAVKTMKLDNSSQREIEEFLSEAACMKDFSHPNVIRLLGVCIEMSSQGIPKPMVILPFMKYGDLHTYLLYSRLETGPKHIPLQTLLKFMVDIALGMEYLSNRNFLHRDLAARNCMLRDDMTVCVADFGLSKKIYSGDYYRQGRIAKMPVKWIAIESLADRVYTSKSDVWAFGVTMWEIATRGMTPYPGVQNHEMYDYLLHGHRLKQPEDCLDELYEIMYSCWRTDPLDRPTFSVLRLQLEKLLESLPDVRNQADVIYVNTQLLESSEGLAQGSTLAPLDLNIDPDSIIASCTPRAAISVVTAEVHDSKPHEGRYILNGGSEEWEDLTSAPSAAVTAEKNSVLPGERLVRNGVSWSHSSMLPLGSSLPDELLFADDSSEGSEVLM
Text: as §1

NEK11 = molecular target: T17, NEK11 (Homo sapiens, UniProt Q8NG66); test: KINOMEscan at 1 μM, NEK11; format: binding; settings: 1000 nM, read-out: Percent Control
T17 construct: purchased Eurofins DiscoverX KINOMEscan
Text: as §1

NLK = molecular target: T18, NLK (Homo sapiens, UniProt Q9UBE8); test: KINOMEscan at 1 μM, NLK; format: binding; settings: 1000 nM, read-out: Percent Control
T18 construct: purchased Eurofins DiscoverX KINOMEscan
Text: as §1

PRKD3 = molecular target: T19, PRKD3 (Homo sapiens, UniProt O94806); test: KINOMEscan at 1 μM, PRKD3; format: binding; settings: 1000 nM, read-out: Percent Control
T19 construct: purchased Eurofins DiscoverX KINOMEscan
Text: as §1

HPK1 = molecular target: T20, HPK1 (Homo sapiens, UniProt Q92918); test: KINOMEscan binding assay at 1 μM, HPK1; settings: Compound Concentration 1000 nM; read-out: Percent Control
T20 construct: purchased Eurofins DiscoverX KINOMEscan
Text: as §1

ERBB4 = molecular target: T21, ERBB4 (Homo sapiens, UniProt Q15303); test: KINOMEscan at 1 μM, ERBB4; format: binding; settings: 1000 nM, read-out: Percent Control
T21 construct: purchased Eurofins DiscoverX KINOMEscan
T21 sequence (Q15303 26-1308): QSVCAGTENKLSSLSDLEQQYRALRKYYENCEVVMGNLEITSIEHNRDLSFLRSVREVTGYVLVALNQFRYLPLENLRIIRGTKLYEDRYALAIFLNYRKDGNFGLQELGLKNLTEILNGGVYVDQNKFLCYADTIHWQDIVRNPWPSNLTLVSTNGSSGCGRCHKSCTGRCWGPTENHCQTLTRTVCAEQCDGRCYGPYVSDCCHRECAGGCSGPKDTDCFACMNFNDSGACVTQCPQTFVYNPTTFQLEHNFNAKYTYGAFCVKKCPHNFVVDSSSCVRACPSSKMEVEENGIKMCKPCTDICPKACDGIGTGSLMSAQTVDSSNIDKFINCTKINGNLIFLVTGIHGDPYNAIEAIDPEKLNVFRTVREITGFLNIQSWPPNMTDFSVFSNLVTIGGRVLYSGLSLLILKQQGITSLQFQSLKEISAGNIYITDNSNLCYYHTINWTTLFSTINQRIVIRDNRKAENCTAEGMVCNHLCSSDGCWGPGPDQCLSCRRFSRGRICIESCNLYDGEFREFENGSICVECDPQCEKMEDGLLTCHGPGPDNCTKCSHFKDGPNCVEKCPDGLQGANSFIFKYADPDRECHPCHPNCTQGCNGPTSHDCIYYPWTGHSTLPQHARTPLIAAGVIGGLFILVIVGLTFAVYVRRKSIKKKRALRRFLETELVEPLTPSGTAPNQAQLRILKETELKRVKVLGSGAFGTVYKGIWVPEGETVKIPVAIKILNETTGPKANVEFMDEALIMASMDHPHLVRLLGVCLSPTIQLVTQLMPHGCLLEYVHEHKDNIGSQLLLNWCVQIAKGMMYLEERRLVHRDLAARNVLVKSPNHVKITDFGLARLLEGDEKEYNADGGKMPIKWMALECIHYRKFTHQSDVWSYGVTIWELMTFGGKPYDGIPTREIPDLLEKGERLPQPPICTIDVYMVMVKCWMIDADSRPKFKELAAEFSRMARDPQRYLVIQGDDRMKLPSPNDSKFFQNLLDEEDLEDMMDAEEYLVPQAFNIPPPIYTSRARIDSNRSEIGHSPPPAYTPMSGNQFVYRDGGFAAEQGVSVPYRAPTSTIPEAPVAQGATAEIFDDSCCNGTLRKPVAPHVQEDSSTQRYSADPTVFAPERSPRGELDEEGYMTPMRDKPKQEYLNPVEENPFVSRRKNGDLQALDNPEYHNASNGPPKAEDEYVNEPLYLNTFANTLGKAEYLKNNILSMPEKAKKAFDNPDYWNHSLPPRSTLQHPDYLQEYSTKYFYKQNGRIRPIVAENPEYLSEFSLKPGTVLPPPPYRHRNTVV
Text: as §1

SRPK3 = molecular target: T22, SRPK3 (Homo sapiens, UniProt Q9UPE1); test: DiscoverX KINOMEscan binding assay at 1 μM, SRPK3; settings: Compound Concentration 1000 nM, read-out: Percent Control
T22 construct: purchased Eurofins DiscoverX KINOMEscan
Text: (§2) Supplement cells-12-00287-s001.zip/File S2. KinomeScan data for the CAMKK2 probe and negative control.xlsx, sheet "SGC-CAMKK2-1" | column: Percent Control

GSK3B = molecular target: T23, GSK3B (Homo sapiens, UniProt P49841); test: KINOMEscan 1 μM, GSK3B; format: binding; settings: 1000 nM; Entrez GSK3B; read-out: Percent Control
T23 construct: purchased Eurofins DiscoverX KINOMEscan
Text: as §2

ULK3 = molecular target: T24, ULK3 (Homo sapiens, UniProt Q6PHR2); test: DiscoverX KINOMEscan binding assay at 1 μM, ULK3; settings: Compound Concentration 1000 nM, read-out: Percent Control
T24 construct: purchased Eurofins DiscoverX KINOMEscan
Text: as §2

STK39 = molecular target: T25, STK39 (Homo sapiens, UniProt Q9UEW8); test: KINOMEscan 1 μM, STK39; format: binding; settings: 1000 nM; Entrez STK39; read-out: Percent Control
T25 construct: purchased Eurofins DiscoverX KINOMEscan
Text: as §2

[2] = molecular target: T26, ABL1(Q252H)-phosphorylated (Homo sapiens, UniProt P00519, Q252H); test: KINOMEscan 1 μM, ABL1(Q252H)-phosphorylated; format: binding; settings: 1000 nM; Entrez ABL1; read-out: Percent Control
T26 construct: purchased Eurofins DiscoverX KINOMEscan
Text: as §2

MARK2 = molecular target: T27, MARK2 (Homo sapiens, UniProt Q7KZI7); test: KINOMEscan 1 μM, MARK2; format: binding; settings: 1000 nM; Entrez MARK2; read-out: Percent Control
T27 construct: purchased Eurofins DiscoverX KINOMEscan
Text: as §2

PIKFYVE = molecular target: T28, PIKFYVE (Homo sapiens, UniProt Q9Y2I7); test: KINOMEscan 1 μM, PIKFYVE; format: binding; settings: 1000 nM; Entrez PIKFYVE; read-out: Percent Control
T28 construct: purchased Eurofins DiscoverX KINOMEscan
Text: as §2

ALK = molecular target: T29, ALK (Homo sapiens, UniProt Q9UM73); test: KINOMEscan 1 μM, ALK; format: binding; settings: 1000 nM; Entrez ALK; read-out: Percent Control
T29 construct: purchased Eurofins DiscoverX KINOMEscan
Text: as §2

PIK3CA(H1047L) = molecular target: T30, PIK3CA(H1047L) (Homo sapiens, UniProt P42336, H1047L); test: KINOMEscan 1 μM, PIK3CA(H1047L); format: binding; settings: 1000 nM; Entrez PIK3CA; read-out: Percent Control
T30 construct: purchased Eurofins DiscoverX KINOMEscan
Text: as §2

PFTAIRE2 = molecular target: T31, PFTAIRE2 (Homo sapiens, UniProt Q96Q40); test: DiscoverX KINOMEscan binding assay at 1 μM, PFTAIRE2; settings: PFTAIRE2 (CDK15); Compound Concentration 1000 nM; read-out: Percent Control
T31 construct: purchased Eurofins DiscoverX KINOMEscan
Text: as §2

DRAK1 = molecular target: T32, DRAK1 (Homo sapiens, UniProt Q9UEE5); test: KINOMEscan 1 μM, DRAK1; format: binding; settings: 1000 nM; Entrez STK17A; read-out: Percent Control
T32 construct: purchased Eurofins DiscoverX KINOMEscan
T32 sequence (Q9UEE5 whole entry): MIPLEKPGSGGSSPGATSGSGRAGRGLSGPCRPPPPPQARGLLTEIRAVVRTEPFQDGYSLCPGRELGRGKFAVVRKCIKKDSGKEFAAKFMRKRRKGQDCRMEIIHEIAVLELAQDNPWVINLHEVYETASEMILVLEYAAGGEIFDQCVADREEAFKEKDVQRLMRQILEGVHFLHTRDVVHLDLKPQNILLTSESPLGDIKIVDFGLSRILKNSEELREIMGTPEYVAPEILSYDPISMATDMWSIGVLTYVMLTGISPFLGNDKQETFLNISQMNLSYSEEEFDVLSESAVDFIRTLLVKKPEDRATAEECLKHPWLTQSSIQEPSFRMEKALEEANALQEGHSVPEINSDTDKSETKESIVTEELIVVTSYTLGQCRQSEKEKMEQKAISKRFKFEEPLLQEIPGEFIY
Text: as §2

[3] = molecular target: T33, RSK4(Kin.Dom.1-N-terminal) (Homo sapiens, UniProt Q9UK32); test: DiscoverX KINOMEscan binding assay at 1 μM, RSK4(Kin.Dom.1-N-terminal); settings: RSK4(Kin.Dom.1-N-terminal) (RPS6KA6); Compound Concentration 1000 nM; read-out: Percent Control
T33 construct: RSK4(Kin.Dom.1-N-terminal); purchased Eurofins DiscoverX KINOMEscan
Text: as §2

CSNK1A1L = molecular target: T34, CSNK1A1L (Homo sapiens, UniProt Q8N752); test: KINOMEscan 1 μM, CSNK1A1L; format: binding; settings: 1000 nM; Entrez CSNK1A1L; read-out: Percent Control
T34 construct: purchased Eurofins DiscoverX KINOMEscan
T34 sequence (Q8N752 whole entry): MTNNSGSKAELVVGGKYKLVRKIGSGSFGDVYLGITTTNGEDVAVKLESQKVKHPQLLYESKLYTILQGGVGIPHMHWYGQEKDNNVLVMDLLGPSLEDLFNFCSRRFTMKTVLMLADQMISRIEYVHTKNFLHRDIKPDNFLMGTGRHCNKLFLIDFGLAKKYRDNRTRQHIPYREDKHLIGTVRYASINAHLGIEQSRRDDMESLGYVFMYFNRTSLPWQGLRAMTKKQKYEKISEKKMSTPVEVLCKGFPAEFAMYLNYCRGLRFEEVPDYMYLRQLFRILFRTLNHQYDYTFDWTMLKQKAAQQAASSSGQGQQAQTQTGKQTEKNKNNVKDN
Text: as §2

With `O=C(O)c1ccc(-c2coc3ncc(-c4ccccc4)cc23)cc1Cl` [SGC-CAMKK2-1N (UNC-YL-83)] as the molecule, how does the remaining binding at 1 µM (ROCK1) read?
The remaining binding at 1 µM was 79%.

And the remaining binding at 1 µM (CDC2L5)?
The remaining binding at 1 µM was 57%.

What about the remaining binding at 1 µM (ASK1) of the same molecule?
The remaining binding at 1 µM was 100%.

What about the remaining binding at 1 µM (TGFBR2) of the same molecule?
Its remaining binding at 1 µM is 100%.

And the remaining binding at 1 µM (FGR)?
Its remaining binding at 1 µM is 54%.

What about the remaining binding at 1 µM (MARK1) of the same molecule?
Its remaining binding at 1 µM is 97%.

And the remaining binding at 1 µM (KIT(L576P))?
The remaining binding at 1 µM was 66%.

What about the remaining binding at 1 µM (PKNB(M.tuberculosis)) of the same molecule?
Its remaining binding at 1 µM is 83%.

What about the remaining binding at 1 µM (JNK1) of the same molecule?
Its remaining binding at 1 µM is 81%.

And the remaining binding at 1 µM (ACVR2A)?
The remaining binding at 1 µM was 72%.

And the remaining binding at 1 µM (MINK)?
Its remaining binding at 1 µM is 95%.

What about the remaining binding at 1 µM (MAST1) of the same molecule?
Its remaining binding at 1 µM is 100%.

And the remaining binding at 1 µM (MRCKB)?
The remaining binding at 1 µM was 100%.

And the remaining binding at 1 µM (BRK)?
The remaining binding at 1 µM was 96%.

What about the remaining binding at 1 µM [1] of the same molecule?
The remaining binding at 1 µM was 100%.

What about the remaining binding at 1 µM (MERTK) of the same molecule?
The remaining binding at 1 µM was 93%.

What about the remaining binding at 1 µM (NEK11) of the same molecule?
Its remaining binding at 1 µM is 62%.

And the remaining binding at 1 µM (NLK)?
Its remaining binding at 1 µM is 84%.

What about the remaining binding at 1 µM (PRKD3) of the same molecule?
Its remaining binding at 1 µM is 93%.

And the remaining binding at 1 µM (HPK1)?
The remaining binding at 1 µM was 100%.

And the remaining binding at 1 µM (ERBB4)?
Its remaining binding at 1 µM is 83%.

Which results are given for `Cc1cccc(-c2cnc3occ(-c4ccc(C(=O)O)c(C5CCCC5)c4)c3c2)c1` [SGC-CAMKK2-1 (YL-36)]?
remaining binding at 1 µM (SRPK3): 100%; remaining binding at 1 µM (GSK3B): 100%; remaining binding at 1 µM (ULK3): 100%; remaining binding at 1 µM (STK39): 64%; remaining binding at 1 µM [2]: 96%; remaining binding at 1 µM (MARK2): 100%; remaining binding at 1 µM (PIKFYVE): 80%; remaining binding at 1 µM (ALK): 100%; remaining binding at 1 µM (PIK3CA(H1047L)): 78%; remaining binding at 1 µM (PFTAIRE2): 100%; remaining binding at 1 µM (DRAK1): 100%; remaining binding at 1 µM [3]: 100%; remaining binding at 1 µM (CSNK1A1L): 88%
